PMC7162861, “Synthesis, cytotoxicity, pharmacokinetic profile, binding with DNA and BSA of new imidazo[1,2-a]pyrazine-benzo[d]imidazol-5-yl hybrids” (Scientific Reports, 2020)

Key:
[1] = Experimental log P, shake-flask method; format: physicochemical; settings: n-octanol/phosphate buffer pH 7.4, read-out: Exp. Log P
Protocol: Partition coefficients or experimental log P values of all synthesized compounds (9–23, 30 and 31) were calculated using the shake-flask method. Log P values were determined using n-octanol and phosphate buffer (pH = 7.4) at 10:1 ratio of volumes. Stock solutions (10^−3 M) of compounds were prepared in DMSO. Glass vials were used to make final solutions i.e. stock solution (250 µL) and phosphate buffer (125 µL). To record the absorbance, wavelength was selected based on λmax of the respective compound. Initial absorbance (Ai) for every compound was noted consuming the stock solution in the buffer phase. Now added n-octanol to every vial and shaken well using a mechanical shaker for 50 minutes. To get separation of both phases, glass vials were centrifuged for 35 min. at 2500 rpm. Then, the layer of octanol was separated from glass vial. The final absorbance (Af) of each compound was recorded by using the buffer layer. The values of P for compounds were determined by the following equation (Eq. 8):8 P=Ai−Af/Af×Vw/Vo

| melting point [°C] | logP [1] | Compound |
| --- | --- | --- |
| 183 to 186 | 1.54 | Cc1cccc(-c2cn3ccnc3c(-c3ccc4c(c3)ncn4C3CCCCC3)n2)c1 [Compound 15, 8-(1-cyclohexyl-1H-benzo[d]imidazol-5-yl)-6-(m-tolyl)imidazo[1,2-a]pyrazine] |
| 182 to 185 | 1.74 | CCc1ccc(-c2cn3ccnc3c(-c3ccc4c(c3)ncn4C3CCCCC3)n2)cc1 [Compound 16, 8-(1-cyclohexyl-1H-benzo[d]imidazol-5-yl)-6-(4-ethylphenyl)imidazo[1,2-a]pyrazine] |
| 200 to 203 | 1.41 | CC(=O)c1ccc(-c2cn3ccnc3c(-c3ccc4c(c3)ncn4C3CCCCC3)n2)cc1 [Compound 17, 1-(4-(8-(1-cyclohexyl-1H-benzo[d]imidazol-5-yl)imidazo[1,2-a]pyrazin-6-yl)phenyl)ethan-1-one] |
